Data as given in patent US9840509B2, “Heterocyclic compounds” (CADILA HEALTHCARE LIMITED, priority 2014, dated 2017).

Assays:
[1] = biological target: T1, recombinant purified human BTK (Homo sapiens, UniProt Q06187); test: In vitro BTK kinase assay on ADP Glo platform; format: biochemical; settings: 2 hr room temperature, read-out: In-vitro BTK inhibitory activity: IC50
T1 construct: purchased SignalChem, USA
Summary of the method: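 Recombinant human BTK (3 ng/reaction) with compound dilutions in Tris pH 7.5, MgCl2/MnCl2, BSA, DTT; started with 50 µM ATP (final) and polyGln4Tyr1 substrate, 2 h at room temperature. ADP formed detected by ADP-Glo luminescence; IC50 by nonlinear fit versus uninhibited enzyme as 100%.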

CYP 1A2 = biological target: T2, CYP 1A2 (Homo sapiens, UniProt P05177); test: CYP inhibition in human liver microsomes, 1A2; format: in vitro ADME; settings: pH 7.4, @ 10 μM concn
T2 construct: from tissue; host or cells: human liver microsomes
T2 sequence (P05177 1-516): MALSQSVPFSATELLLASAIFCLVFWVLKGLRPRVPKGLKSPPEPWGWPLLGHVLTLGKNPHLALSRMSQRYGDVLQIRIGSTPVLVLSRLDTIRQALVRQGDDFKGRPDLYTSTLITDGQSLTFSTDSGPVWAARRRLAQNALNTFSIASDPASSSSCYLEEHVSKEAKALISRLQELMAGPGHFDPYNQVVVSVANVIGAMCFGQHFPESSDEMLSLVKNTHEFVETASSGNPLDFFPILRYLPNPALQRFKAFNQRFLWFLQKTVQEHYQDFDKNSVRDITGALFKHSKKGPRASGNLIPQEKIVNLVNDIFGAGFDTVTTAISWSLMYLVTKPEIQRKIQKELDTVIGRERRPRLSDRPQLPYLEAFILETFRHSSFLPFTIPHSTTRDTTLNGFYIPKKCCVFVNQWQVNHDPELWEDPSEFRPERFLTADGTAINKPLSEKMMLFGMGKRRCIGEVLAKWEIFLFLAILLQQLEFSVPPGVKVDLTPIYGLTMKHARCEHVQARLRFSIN
Summary of the method: (§1)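 Human liver microsomes in 100 mM phosphate pH 7.4 with CYP-specific probe substrate were incubated with test compound at […] and 10 μM, started with 1 mM NADPH at 37° C. Reactions were stopped with acetonitrile, and marker-reaction metabolites were quantified by LC-MS/MS. Final solvent was ≤0.2%.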

CYP 2C8 = biological target: T3, CYP 2C8 (Homo sapiens, UniProt P10632); test: CYP inhibition in human liver microsomes, 2C8; format: in vitro ADME; settings: pH 7.4, @ 10 μM concn
T3 construct: from tissue; host or cells: human liver microsomes
T3 sequence (P10632 1-490): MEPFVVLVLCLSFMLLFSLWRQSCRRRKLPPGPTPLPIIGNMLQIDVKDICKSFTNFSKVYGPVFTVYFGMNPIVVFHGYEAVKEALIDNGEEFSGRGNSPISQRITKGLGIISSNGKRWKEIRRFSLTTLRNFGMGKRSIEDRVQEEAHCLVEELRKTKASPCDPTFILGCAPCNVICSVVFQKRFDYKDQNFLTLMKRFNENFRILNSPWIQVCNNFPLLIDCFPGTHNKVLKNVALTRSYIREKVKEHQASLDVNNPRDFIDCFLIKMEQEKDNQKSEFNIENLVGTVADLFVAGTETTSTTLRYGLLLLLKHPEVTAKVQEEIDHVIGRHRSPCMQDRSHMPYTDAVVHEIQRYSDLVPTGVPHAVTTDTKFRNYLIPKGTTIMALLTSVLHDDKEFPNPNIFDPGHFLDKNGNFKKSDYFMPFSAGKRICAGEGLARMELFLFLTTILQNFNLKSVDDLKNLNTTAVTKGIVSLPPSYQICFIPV
Summary of the method: as §1

CYP 2C9 = biological target: T4, CYP 2C9 (Homo sapiens, UniProt P11712); test: CYP inhibition in human liver microsomes, 2C9; format: in vitro ADME; settings: pH 7.4, @ 10 μM concn
T4 construct: from tissue; host or cells: human liver microsomes
T4 sequence (P11712 whole entry): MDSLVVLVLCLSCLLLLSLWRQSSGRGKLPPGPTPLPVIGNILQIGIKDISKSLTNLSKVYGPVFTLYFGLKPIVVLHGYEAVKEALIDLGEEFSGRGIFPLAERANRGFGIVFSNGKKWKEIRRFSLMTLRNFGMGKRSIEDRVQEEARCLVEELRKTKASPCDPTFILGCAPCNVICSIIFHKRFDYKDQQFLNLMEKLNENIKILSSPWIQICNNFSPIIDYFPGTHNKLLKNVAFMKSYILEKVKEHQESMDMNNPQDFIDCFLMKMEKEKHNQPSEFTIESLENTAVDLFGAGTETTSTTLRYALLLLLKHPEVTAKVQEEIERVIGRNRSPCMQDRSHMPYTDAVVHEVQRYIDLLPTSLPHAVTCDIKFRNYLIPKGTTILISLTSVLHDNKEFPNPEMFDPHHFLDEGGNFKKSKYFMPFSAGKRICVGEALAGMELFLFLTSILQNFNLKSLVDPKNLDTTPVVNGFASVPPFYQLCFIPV
Summary of the method: as §1

CYP 2C19 = biological target: T5, CYP 2C19 (Homo sapiens, UniProt P33261); test: CYP inhibition in human liver microsomes, 2C19; format: in vitro ADME; settings: pH 7.4, @ 10 μM concn
T5 construct: from tissue; host or cells: human liver microsomes
T5 sequence (P33261 whole entry): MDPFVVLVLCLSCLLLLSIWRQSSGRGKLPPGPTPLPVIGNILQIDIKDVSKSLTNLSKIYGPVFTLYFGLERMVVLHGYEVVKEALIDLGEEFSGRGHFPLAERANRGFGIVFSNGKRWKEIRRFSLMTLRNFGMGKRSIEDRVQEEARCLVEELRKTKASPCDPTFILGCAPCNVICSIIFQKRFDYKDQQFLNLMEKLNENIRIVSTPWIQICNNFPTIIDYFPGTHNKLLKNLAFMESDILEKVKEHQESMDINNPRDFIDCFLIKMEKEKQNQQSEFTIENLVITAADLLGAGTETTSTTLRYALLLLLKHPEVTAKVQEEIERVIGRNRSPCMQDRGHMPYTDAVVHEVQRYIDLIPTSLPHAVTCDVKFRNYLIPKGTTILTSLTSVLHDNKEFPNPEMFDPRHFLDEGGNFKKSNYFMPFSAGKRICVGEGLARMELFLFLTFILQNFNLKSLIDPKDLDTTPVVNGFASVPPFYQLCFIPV
Summary of the method: as §1

CYP 2D6 = biological target: T6, CYP 2D6 (Homo sapiens, UniProt P10635); test: CYP inhibition in human liver microsomes, 2D6; format: in vitro ADME; settings: pH 7.4, @ 10 μM concn
T6 construct: from tissue; host or cells: human liver microsomes
T6 sequence (P10635 whole entry): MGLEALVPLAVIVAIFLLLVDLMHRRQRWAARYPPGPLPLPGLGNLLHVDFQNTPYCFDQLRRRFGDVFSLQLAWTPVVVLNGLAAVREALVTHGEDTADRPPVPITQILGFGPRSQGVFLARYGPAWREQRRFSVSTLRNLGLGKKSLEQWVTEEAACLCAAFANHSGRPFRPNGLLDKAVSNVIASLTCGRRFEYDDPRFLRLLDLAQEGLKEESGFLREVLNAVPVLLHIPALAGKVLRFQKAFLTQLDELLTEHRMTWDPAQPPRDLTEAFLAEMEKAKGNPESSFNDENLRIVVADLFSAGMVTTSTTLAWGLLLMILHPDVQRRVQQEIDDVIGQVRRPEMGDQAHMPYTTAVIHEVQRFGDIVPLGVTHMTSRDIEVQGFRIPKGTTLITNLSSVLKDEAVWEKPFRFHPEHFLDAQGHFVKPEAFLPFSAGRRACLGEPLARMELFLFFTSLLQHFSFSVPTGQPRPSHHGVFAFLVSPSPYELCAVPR
Summary of the method: as §1

CYP 3A4 = biological target: T7, CYP 3A4 (Homo sapiens, UniProt P08684); test: CYP inhibition in human liver microsomes, 3A4; format: in vitro ADME; settings: pH 7.4, @ 10 μM concn
T7 construct: from tissue; host or cells: human liver microsomes
T7 sequence (P08684 whole entry): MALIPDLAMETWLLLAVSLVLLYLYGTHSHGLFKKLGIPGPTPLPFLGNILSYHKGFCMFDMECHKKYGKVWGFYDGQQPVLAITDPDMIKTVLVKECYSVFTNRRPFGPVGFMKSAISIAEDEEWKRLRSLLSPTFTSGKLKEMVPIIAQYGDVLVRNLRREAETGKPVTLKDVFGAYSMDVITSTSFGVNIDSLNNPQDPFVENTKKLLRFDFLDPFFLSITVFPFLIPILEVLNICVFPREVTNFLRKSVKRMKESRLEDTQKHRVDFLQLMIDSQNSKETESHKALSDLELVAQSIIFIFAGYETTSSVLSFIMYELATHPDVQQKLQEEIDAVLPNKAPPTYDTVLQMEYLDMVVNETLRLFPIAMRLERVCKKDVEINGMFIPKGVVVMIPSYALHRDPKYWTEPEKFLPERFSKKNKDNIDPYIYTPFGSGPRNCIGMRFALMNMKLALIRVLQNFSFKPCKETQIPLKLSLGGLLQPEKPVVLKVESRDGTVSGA
Summary of the method: as §1

T1 sequence (Q06187 whole entry): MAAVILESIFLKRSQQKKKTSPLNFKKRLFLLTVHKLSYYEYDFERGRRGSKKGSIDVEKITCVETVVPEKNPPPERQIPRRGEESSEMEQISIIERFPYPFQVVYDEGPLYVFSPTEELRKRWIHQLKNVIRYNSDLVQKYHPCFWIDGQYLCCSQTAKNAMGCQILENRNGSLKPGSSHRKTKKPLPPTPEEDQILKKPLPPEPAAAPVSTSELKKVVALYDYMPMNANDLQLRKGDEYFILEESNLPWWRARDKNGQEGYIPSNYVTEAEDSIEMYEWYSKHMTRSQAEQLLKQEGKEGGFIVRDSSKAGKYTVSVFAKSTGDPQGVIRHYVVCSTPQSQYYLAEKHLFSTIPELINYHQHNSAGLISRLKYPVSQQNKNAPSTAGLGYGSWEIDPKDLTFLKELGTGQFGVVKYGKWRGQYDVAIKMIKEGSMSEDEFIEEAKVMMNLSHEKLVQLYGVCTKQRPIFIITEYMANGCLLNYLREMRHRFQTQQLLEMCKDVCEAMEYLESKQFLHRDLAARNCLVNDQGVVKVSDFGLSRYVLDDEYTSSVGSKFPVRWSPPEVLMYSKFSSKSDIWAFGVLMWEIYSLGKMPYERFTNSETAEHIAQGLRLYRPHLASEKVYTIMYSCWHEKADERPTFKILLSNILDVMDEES

Row | IC50 [1] [nM] | inhibition at 10 μM (CYP 1A2) [%] | inhibition at 10 μM (CYP 2C8) [%] | inhibition at 10 μM (CYP 2C9) [%] | inhibition at 10 μM (CYP 2C19) [%] | inhibition at 10 μM (CYP 2D6) [%] | inhibition at 10 μM (CYP 3A4) [%] | Structure (SMILES)
1 | 100 | < 50 | > 50 | > 50 | < 50 | < 50 | > 50 | CN(C)C/C=C/C(=O)N1CC2CC(n3nc(-c4ccc(C(=O)Nc5cc(C(F)(F)F)ccn5)cc4)c4c(N)ncnc43)CC2C1 (stereo not drawn) [Compound 51, (E)-4-(4-amino-1-(2-(4-(dimethylamino)but-2-enoyl)octahydrocyclopenta [c]pyrrol-5-yl)-1H-pyrazolo[3,4-d]pyrimidin-3-yl)-N-(4-(trifluoromethyl)pyridine-2-yl)benzamide]
2 | 162 | > 50 | < 50 | < 50 | > 50 | < 50 | > 50 | C=CC(=O)N1CC2CC(n3nc(-c4ccc(Oc5cccnc5)cc4)c4c(N)ncnc43)CC2C1 (stereo not drawn) [Compound 52, 1-(5-(4-amino-3-(4-(pyridin-3-yloxy)phenyl)-1H-pyrazolo[3,4-d]pyrimidin-1-yl)hexahydrocyclopenta[c]pyrrol-2(1H)-yl)prop-2-en-1-one]
3 | 10 | < 50 | < 50 | < 50 | < 50 | < 50 | > 50 | CN(C)C/C=C/C(=O)N1CC2CC(n3nc(-c4ccc(Oc5cccnc5)cc4)c4c(N)ncnc43)CC2C1 (stereo not drawn) [Compound 53, (E)-1-(5-(4-amino-3-(4-(pyridin-3-yloxy)phenyl)-1H-pyrazolo[3,4-d]pyrimidin-1-yl)hexahydrocyclopenta[c]pyrrol-2(1H)-yl)-4-(dimethylamino)but-2-en-1-one]
4 | 80 | < 50 | > 50 | > 50 | > 50 | < 50 | > 50 | Cc1ccnc(N(C)C(=O)c2ccc(-c3nn(C4CC5CN(C(=O)/C=C/CN(C)C)CC5C4)c4ncnc(N)c34)cc2)c1 (stereo not drawn) [Compound 55, (E)-4-(4-amino-1-(2-(4-(dimethylamino)but-2-enoyl)octahydrocyclopenta [c]pyrrol-5-yl)-1H-pyrazolo[3,4-d]pyrimidin-3-yl)-N-methyl-N-(4-methylpyridin-2-yl)benzamide]
5 | 50 | > 50 | > 50 | > 50 | < 50 | < 50 | > 50 | CN(C)C/C=C/C(=O)N1CC2CC(n3nc(-c4ccc(-c5nnc(-c6cnccn6)s5)cc4)c4c(N)ncnc43)CC2C1 (stereo not drawn) [Compound 56, (E)-1-(5-(4-amino-3-(4-(5-(pyrazin-2-yl)-1,3,4-thiadiazol-2-yl)phenyl)-1H-pyrazolo[3,4-d]pyrimidin-1-yl)hexahydrocyclopenta[c]pyrrol-2(1H)-yl)-4-(dimethylamino)but-2-en-1-one]
6 | 100 | < 50 | > 50 | > 50 | < 50 | < 50 | > 50 | CN(C)C/C=C/C(=O)N1CC2CC(n3nc(-c4ccc(-c5nnc(-c6ccccn6)o5)cc4)c4c(N)ncnc43)CC2C1 (stereo not drawn) [Compound 57, (E)-1-(5-(4-amino-3-(4-(5-(pyridin-2-yl)-1,3,4-oxadiazol-2-yl)phenyl)-1H-pyrazolo[3,4-d]pyrimidin-1-yl)hexahydrocyclopenta[c]pyrrol-2(1H)-yl)-4-(dimethylamino)but-2-en-1-one]
